Patent US20100150844A1, “USE OF 8-QUINOLINOL AND ITS ANALOGS TO TARGET CANCER STEM CELLS” (The Johns Hopkins University, priority 2006, published 2010)
“Also recorded” adds a separate entry of the source. Read-outs that look alike come from different tables or passages of the source. Non-standard residues stand in square brackets, D forms with d. Residues, ends and D or L forms follow the SMILES beside them. *: point of attachment. Nle = CCCC[C@H](N)C(=O)O; Cbz = O=C(OCc1ccccc1)*

Columns and labels:
MDA-MB-435 tumor = test: Antitumor activity in nude mouse xenograft model, MDA-MB-435; format: in vivo
Experimental: (§1) FIGS. 5A-5F. […] Experiment was performed as described in FIG. 3 and Materials and Methods. B: Structure of NSC125034 and 8Q. […] D: In vivo effect of 8Q (4 mg/Kg) by intratumor injection. […] Mice were treated twice weekly for 3 weeks. Tumor sizes were measured weekly. E: In vivo effect of 8Q (20 mg/Kg) by tail vein injection on two different types of breast cancer cell lines, MCF7 (estrogen dependent, xenograft model reflect the early-stage breast malignancy) and MDA-MB435 (estrogen […], xenograft model reflect the later-stage breast malignancy). Mice were treated twice weekly for 4 weeks. (1) MCF7 xenograft (2) MDA-MB435 xenograft. F: Total body weight of individual mouse in the tail vein injection experiment was determined weekly and the average body weight was plotted.
(§2) Antitumor activity in xenograft model. […] Stock solutions of paclitaxel alone, 8-Quinolinol (8Q) alone or in combination with paclitaxel were prepared by dissolving the drugs in a vehicle solution (EtOH:cremophor, 50:50 v/v). Vehicle or paclitaxel alone, 8Q alone and 8Q in combination with paclitaxel stock solution were mixed with saline (10:90 v/v). For intratumor injection, the 8Q dose was 4 mg/kg, given twice weekly for three weeks. […] The tumor volumes were determined by measuring the length (l) and the width (w) and calculating the volume (V=lw^2/2). […]

MCF7 sphere cells = test: Cell proliferation assay (MTT), MCF7 sphere cells; format: cell-based, human
Experimental: (§3) FIG. 2. Susceptibility of MCF7 sphere cells to common anticancer drugs compared with MCF7 cells. Single MCF7 and MCF7 sphere cells were inoculated into 96 well plates at a concentration of 5000 cells per well. After overnight culture, cells were subject to selected clinical drug treatment at the indicated dose for three days. Cell proliferation was determined by MTT assay.
MCF7 and MCF7 sphere cell culture. Human breast cancer cell line MCF7 cells, MDA-MB-435 cells were obtained from ATCC (American Type Culture Collection). Cells were grown in Dulbecco's Modified Eagle's Medium (DMEM) (Invitrogen) supplemented with 10% fetal bovine serum (FBS) (Invitrogen), 100 units/ml penicillin and 100 ug/ml streptomycin (Invitrogen), in a 37° C. incubator containing 5% CO2. To isolate and culture MCF7 sphere cells, SP cells were sorted based on protocol shown below. Sphere cell culture was performed according to published protocol with modifications^28-30. Briefly, single cells were plated in ultralow attachment plates (Corning, N.Y.) at a density of 20,000 viable cells/mL in primary culture and 1000 cells/mL in passages. Cells were grown in a serum-free mammary epithelial growth medium without bovine pituitary extract (MEGM, BioWhittaker), but supplemented with serum substitute B27 (Invitrogen), 20 ng/mL, Epidermal Growth Factor (EGF), 20 ng/mL, and 20 ng/mL basic fibroblast growth factor (bFGF) (BD Biosciences). In order to passage sphere cells, spheres were collected into 15 ml conic tubes and allowed to settle for 15 minutes. Supernatant was removed. Sphere cells were dissociated enzymatically with 0.05% trypsin, 0.5 mM EDTA (Invitrogen) and mechanically by a glass Pasteur pipette. The cells obtained from dissociation were passed through a 40-μm sieve and analyzed microscopically for single cells and subjected to the experiments below.
(§4) Cell proliferation assay. […] Each concentration was repeated three times.

[1] = mouse, U.S. National Toxicology Program acute toxicity studies; cited from earlier work
MCF7 non-SP cells = test: cells; settings: Homo sapiens, MCF7, read-out: growth inhibition
Experimental: (§5) To identify and sort SP and non-SP fractions, cells were washed with phosphate buffered saline (PBS) and detached from the culture dish with trypsin and EDTA, pelleted by centrifugation, and resuspended in 37° C. DMEM containing 2% FBS at 1×10^6 cell/ml. Cell staining was performed according to the protocol originally developed by Goodell et al with slight modification^46. […] Following staining, the cells were spun down and resuspended in Hanks'Balanced Salt Solution (HBSS) (Invitrogen) containing 1 μg/ml propidium iodide and maintained at 4° C. for flow cytometry analysis/sorting. Cell analysis and sorting were performed on a MoFlo cytometer (Dako Cytomation, Fort Collins, Colo. USA) equipped with a Coherent Enterprise II laser emitting MLUV at 351 nm and blue 488 nm lines.
(§6) Cell proliferation assay. To test the sensitivity of MCF7 and MCF7 sphere cells to specific compounds, both MCF7 and MCF7 sphere single cells were seeded at 3×10^4 cells/ml in 96-well plates. After overnight incubation, serial concentrations of tested compounds were added. Each concentration was repeated three times. These cells were incubated in a humidified atmosphere with 5% CO2 for 3 days. […] The medium was removed and formazan was dissolved in DMSO and the optical density was measured at 590 nm using a Bio-assay reader (Bio-Rad, USA).

MCF7 SP cells = test: cells; settings: Homo sapiens, MCF7, read-out: growth inhibition
Experimental: as §5, §6

[2] = in words; solvent DMSO or ethanol
MCF7 cells = test: Cell proliferation assay (MTT), MCF7 parental cells; format: cell-based, human
Experimental: as §3, §4

MCF7 xenograft = settings: tail vein injection, 8Q 20 mg/kg twice weekly for 4 weeks, FIG. 5E(1)
Experimental: as §1, §2

[3] = tail vein, 20 mg/kg, nude mice
Experimental: as §1, §2

[4] = rat, U.S. National Toxicology Program acute toxicity studies; cited from earlier work
NF-κB [5] = test: Trans-AM NF-κB assay on nuclear extracts of MCF7 cells; format: cell-based; settings: Homo sapiens, 24 hours
Experimental: (§7) FIGS. 3A-3B. A: Susceptibility of MCF7 and MCF7 sphere cells PI3K pathway inhibitor, rapamycin and NF-κB pathway inhibitors, PTL and PDTC at indicated doses. Experiment was performed as described in FIG. 2 and Materials and Methods. B: Inhibition of NF-κB activity of MCF7 and MCF7 sphere cells after treatment with PTL and PDTC at indicated concentrations. Cells were treated with these compounds at indicated doses for 24 hours. Nuclear extract was prepared from control and treated cells. The quantification of NF-κB activation was performed according to product manual. Nuclear extract preparation. […] After the nuclear lysates were centrifuged, supernatants were collected for quantification of NF-κB activation. The protein concentrations in the supernatants were determined using the BCA protein assay kit (Pierce, Rockford, Ill.). Quantification of NF-κB activation. Trans-AM NF-κB assay, an enzyme-linked immunosorbent assay (ELISA)-based method (Trans-AM NF-κB; Active Motif, Carlsbad, Calif.) was used for NF-κB activity quantification according to the manufacturer's instruction. Briefly, cell nuclear extracts were placed in 96-well plates coated with an oligonucleotide containing the NF-κB consensus sequence, and the presence of active NF-κB was detected by using antibodies specific for p50 subunits that are not complexed to IκB and thus able to bind the consensus sequence. […]

NF-κB [6] = test: Trans-AM NF-κB assay on nuclear extracts of MCF7 sphere cells; format: cell-based, human; settings: 5 μM, 24 hours
Experimental: as §7

[7] = comparison sphere versus parental cells, in words

Oc1cccc2cccnc12 [8Q, 8-quinolinol]
tumor growth inhibition (MDA-MB-435 tumor; intratumor injection, 8Q 4 mg/kg twice weekly for 3 weeks, FIG. 5D): significantly inhibited tumor growth
inhibition at 5 µM (MCF7 sphere cells; Homo sapiens, 72 h, 5 μM, three day treatment, MCF7 sphere cells, read-out: growth inhibition): 86%
growth inhibition on MCF7 sphere cells compared with MCF7 cells (MCF7 sphere cells; [7]): preferentially inhibit the cancer stem cells over bulk cancer cells
LD50 (oral) [1]: 20 g/kg
inhibition at 5 µM (MCF7 non-SP cells): 71.9%
inhibition at 5 µM (MCF7 SP cells): 84.7%
solubility [2]: Ethanol soluble
inhibition at 5 µM (MCF7 cells; Homo sapiens, MCF7, 72 h, read-out: growth inhibition): 30%
tumor growth inhibition (MCF7 xenograft): significantly inhibited tumor growth
toxicity judged by apparent symptoms and body weight loss [3]: did not show significant toxicity
LD50 (oral) [4]: 1.2 g/kg

CCCC[C@@H](C=O)NC(=O)[C@H](CC(C)C)NC(=O)[C@H](CC(C)C)NC(=O)OCc1ccccc1 [GSI1] (Cbz-Leu-Leu-[Nle]-aldehyde)
growth inhibition on MCF7 sphere cells compared with MCF7 cells (MCF7 sphere cells; [7]): did not inhibit MCF7 sphere cells more than the MCF7 parental cells; also recorded: no higher growth inhibitor ability on MCF7 sphere cells than MCF7 cells

S=C(S)N1CCCC1 [PDTC, pyrrolidine dithiocarbamate]
inhibition at 5 µM (NF-κB [5]): 33.6%
inhibition at 1 µM (MCF7 sphere cells; Homo sapiens, 1 uM, MCF7 sphere cells, read-out: growth inhibition): 50.8%
growth inhibition on MCF7 sphere cells compared with MCF7 cells (MCF7 sphere cells; [7]): inhibit MCF7 sphere cells more strongly than the parental MCF7 cells; also recorded: very marked growth inhibition on MCF7 sphere cells compared to MCF7 cells
decrease of NF-κB activity (NF-κB [6]): 61.8%
growth inhibition (MCF7 cells; 1 uM, MCF7 cells): no growth inhibition effects

CC1=C2C[C@H]3[C@@H](CC=C4C[C@@H](O)CC[C@@]43C)[C@@H]2CC[C@]12O[C@@H]1C[C@H](C)CN[C@H]1[C@H]2C [cyclopamine]
growth inhibition on MCF7 sphere cells compared with MCF7 cells (MCF7 sphere cells): did not inhibit MCF7 sphere cells more than the MCF7 parental cells; also recorded: no higher growth inhibitor ability on MCF7 sphere cells than MCF7 cells

CC(=O)O[C@H]1C(=O)[C@@]2(C)[C@H]([C@H](OC(=O)c3ccccc3)[C@]3(O)C[C@H](OC(=O)[C@H](O)[C@@H](NC(=O)c4ccccc4)c4ccccc4)C(C)=C1C3(C)C)[C@]1(OC(C)=O)CO[C@@H]1C[C@@H]2O [paclitaxel]
tumor growth inhibition (MDA-MB-435 tumor; positive control, paclitaxel 15 mg/kg): inhibited the tumor growth as expected
inhibition at 0.25 µM (MCF7 sphere cells; Homo sapiens, 72 h, 0.25 uM, 3 days, MCF7 sphere cells, read-out: growth inhibition): 6.1%
inhibition at 0.25 µM (MCF7 cells; Homo sapiens, 72 h, 0.25 uM, 3 days, MCF7 parental cells, read-out: growth inhibition): 44.5%

B1: DKK1: Wnt pathway inhibitor (protein, UniProt O94907 32-266, looked up)
Dickkopf-related protein 1: TLNSVLNSNAIKNLPPPLGGAAGHPGSAVSAAPGILYPGGNKYQTIDNYQPYPCAEDEECGTDEYCASPTRGGDAGVQICLACRKRRKRCMRHAMCCPGNYCKNGICVSSDQNHFRGEIEETITESFGNDHSTLDGYSRRTTLSSKMYHTKGQEGSVCLRSSDCASGLCCARHFWSKICKPVLKEGQVCTKHRRKGSHGLEIFQRCYCGEGLSCRIQKDHHQASNSSRLHTCQRH
growth inhibition on MCF7 sphere cells compared with MCF7 cells (MCF7 sphere cells; [7]): no higher growth inhibitor ability on MCF7 sphere cells than MCF7 cells
growth inhibition on MCF7 sphere cells compared with MCF7 cells (MCF7 sphere cells; comparison sphere versus parental cells, in words, listed as DKKI): did not inhibit MCF7 sphere cells more than the MCF7 parental cells
